Biological target: T1, CrtE (geranylgeranyl diphosphate synthase, GGPPS) (Sporobolomyces pararoseus, UniProt A0A2P1HA31)
T1 construct: dimer only in the predicted model
Assay: TLC of dephosphorylated product (GGOH)
Type: biochemical

T1 sequence (A0A2P1HA31 1-377): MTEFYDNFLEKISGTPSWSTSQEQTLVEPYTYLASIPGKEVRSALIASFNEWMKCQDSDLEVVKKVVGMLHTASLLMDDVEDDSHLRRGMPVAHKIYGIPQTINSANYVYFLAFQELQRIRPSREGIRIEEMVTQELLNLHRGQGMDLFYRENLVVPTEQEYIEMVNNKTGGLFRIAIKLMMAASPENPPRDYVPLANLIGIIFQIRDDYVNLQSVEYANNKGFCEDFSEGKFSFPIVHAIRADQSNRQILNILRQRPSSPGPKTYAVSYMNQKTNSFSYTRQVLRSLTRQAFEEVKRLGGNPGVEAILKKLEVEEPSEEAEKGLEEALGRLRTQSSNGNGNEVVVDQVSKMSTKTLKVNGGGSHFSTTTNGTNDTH

SMILES	TLC of dephosphorylated product (GGOH) (50 uM IPP with 50 uM allylic co-substrate (FPP, GPP or DMAPP), else same)	TLC of dephosphorylated product (GGOH) (50 uM FPP, 50 uM IPP, 10 ng CrtE in 200 uL, 100 mM HEPES with 5 mM MgCl2 (enzyme exchange buffer) pH 7.5, 28 C, 2 h, Trx/His/S tags kept)
C=C(C)CCOP(=O)(O)OP(=O)(O)O [IPP, isopentenyl diphosphate]	using three different allylic substrates and IPP as substrates for the reaction	
CC(C)=CCC/C(C)=C/CC/C(C)=C/COP(=O)(O)OP(=O)(O)O [FPP, farnesyl diphosphate]		largest number of GGPP was produced using FPP

— PMC9729869, “Functional verification and characterization of a type-III geranylgeranyl diphosphate synthase gene from Sporobolomyces pararoseus NGR” (Frontiers in Microbiology, 2022)
